Patent US20050209157A1, “Short bioactive peptides and methods for their use” (priority 2001, published 2005)
Where two headings read alike, the source gives them in different places. No end group written: not given here.

Legend:
[1] = system: Candida glabrata ATCC15126; experiment: Antimicrobial assays II, NCCLS broth microdilution MIC; type: cell-based; settings: Table 10; in µg/mL
S. aureus (MRSA) = type: cell-based, Staphylococcus aureus; settings: in µg/mL
E. coli UB1005 = type: cell-based, Escherichia coli
[2] = system: Pseudomonas aeruginosa H187; type: cell-based; settings: in µg/mL
S. typhimurium 14028S = type: cell-based, Salmonella typhimurium
[3] = system: Candida tropicalis ATCC13803; experiment: Antimicrobial assays II, NCCLS broth microdilution MIC; type: cell-based; settings: Table 10
Procedure: Anti-microbial activity against a broader range of pathogens (including clinical strains) than were tested in Example 2. It should be noted that somewhat different protocols were employed for the assays in Example 2 and Example 3.
MICs were determined for this Example using a slightly modified version of the NCCLS (National Committee for Clinical Laboratory Standards) broth microdilution method as described previously (Steinberg et al., AAC 41: 1738, 1997). Briefly, antimicrobial agents were prepared as 10× concentrates in the most appropriate solvent. For the peptide, 0.01% acetic acid containing 0.2% bovine serum albumin as a carrier protein was used. Inocula were prepared by resuspending colonies from a BAP in medium and adjusting the suspension to match that of a 0.5 McFarland standard. The suspension was diluted into fresh medium (as recommended by NCCLS for the organism) to give 2×10^5 to 7×10^5 CFU/ml for bacteria or 2×10^3 to 7×10^3 CFU/ml for Candida. After dispensing 100 μl aliquots of the microbial suspension into each well of a 96-well polypropylene microtiter plate, 11 μl of test compound was added. […] For facultative anaerobes incubation was performed in 7% carbon dioxide and for strict anaerobes in an oxygen free environment maintained using a standard anaerobic “jar”. All MICs were performed three times and the mean value determined.

Candida albicans 105 = type: cell-based; settings: in µg/mL
S. epidermidis C621 = type: cell-based, Staphylococcus epidermidis; settings: Table 15
P. aeruginosa H374 = type: cell-based, Pseudomonas aeruginosa; settings: Table 14; in µg/mL

| Substance | MIC C. glabrata ATCC15126 [1] | MIC S. aureus SAP0017 (S. aureus (MRSA); Table 11, strain SAP0017) | MIC E. coli UB1005 (E. coli UB1005; Table 11) | MIC P. aeruginosa H187 ([2]; Table 11) | MIC S. typhimurium 14028S (S. typhimurium 14028S; Table 11) | MIC C. tropicalis ATCC13803 [3] | MIC C. albicans 105 (Candida albicans 105; Table 10) | MIC S. epidermidis C621 (S. epidermidis C621) | MIC P. aeruginosa H374 (P. aeruginosa H374) | MIC S. aureus SAP0017 (S. aureus (MRSA); Table 15, strain SAP0017) | MIC E. coli UB1005 (E. coli UB1005; Table 14) | MIC P. aeruginosa H187 ([2]; Table 15) | MIC S. typhimurium 14028S (S. typhimurium 14028S; Table 14) | MIC C. albicans 105 (Candida albicans 105; Table 15) |
| --- | --- | --- | --- | --- | --- | --- | --- | --- | --- | --- | --- | --- | --- | --- |
| FAKKLAKLAKKL-NH2 [P106 (70)] | 64 | >128 | 64 µg/mL | >128 | > 128 µg/mL | 2 µg/mL | 32 | – | – | – | – | – | – | – |
| FALALKLAKKAL-NH2 [P167 (128)] | 128 | 128 | 32 µg/mL | 128 | 64 µg/mL | 8 µg/mL | 64 | – | – | – | – | – | – | – |
| FAKKLAKKAKLAKKL-NH2 [P77 (53)] | 64 | >128 | 64 µg/mL | 64-128 | > 128 µg/mL | 1 µg/mL | 16 | – | – | – | – | – | – | – |
| FALAKKALKKAKKAL-NH2 [P40 (22)] | 32 | >128 | 64 µg/mL | >128 | > 128 µg/mL | 1 µg/mL | 32 | – | – | – | – | – | – | – |
| FAKKLAKKLAKAL-NH2 [P74 (50)] | 16 | >128 | 16 µg/mL | 32-128 | 64 µg/mL | 1 µg/mL | 16 | – | – | – | – | – | – | – |
| FKLAFKLAKKAFL-NH2 [P122 (84)] | 64 | 128 | 64 µg/mL | 32-128 | 128 µg/mL | 4 µg/mL | 32 | – | – | – | – | – | – | – |
| FAKKALKALKKL-NH2 [P47 (29)] | 64 | >128 | 64 µg/mL | 64-128 | > 128 µg/mL | 1 µg/mL | 32 | – | – | – | – | – | – | – |
| FALALKALKK-NH2 [P169 (130)] | 128 | >128 | 32 µg/mL | 128 | 64 µg/mL | 8 µg/mL | 64 | 32 µg/mL | 128 | >128 | 64 µg/mL | >128 | 64 µg/mL | 64 |
| FAKLLAKALKLKL-NH2 [P101 (65)] | 32 | 128 | 32 µg/mL | 32-128 | 128 µg/mL | 4 µg/mL | 32 | – | – | – | – | – | – | – |
